{
  "source": "patent US20210355104A1",
  "about": "“ADENOSINE RECEPTOR BINDING COMPOUNDS” (Nikang Therapeuticsm Inc., priority 2018, published 2021)",
  "note": "Several values for one entry are separate records, joined by “and”; a condition that tells them apart may be missing. Equal values may be shown once.",
  "data": [
    {"molecular_target": "Adenosine A2A receptor (Homo sapiens, UniProt P29274)", "sequence (P29274 whole entry)": "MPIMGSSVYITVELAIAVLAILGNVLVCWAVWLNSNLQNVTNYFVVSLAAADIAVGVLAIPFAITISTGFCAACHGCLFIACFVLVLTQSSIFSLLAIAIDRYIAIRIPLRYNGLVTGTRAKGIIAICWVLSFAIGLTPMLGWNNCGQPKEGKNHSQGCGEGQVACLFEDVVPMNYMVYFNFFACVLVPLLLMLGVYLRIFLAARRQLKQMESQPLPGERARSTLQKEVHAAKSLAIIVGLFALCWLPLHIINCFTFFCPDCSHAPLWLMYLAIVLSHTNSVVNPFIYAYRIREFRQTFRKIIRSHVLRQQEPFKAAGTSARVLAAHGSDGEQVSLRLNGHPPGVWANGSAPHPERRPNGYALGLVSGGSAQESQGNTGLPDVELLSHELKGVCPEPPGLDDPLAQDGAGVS", "assay": "cAMP assay in 293A cells stably expressing the adenosine A2A receptor (CGS21680 stimulation, HTRF)", "type": "cell-based", "set-up": "expressed in transfected cells; host or cells: 293A cells (Invitrogen, Cat# R705-07) infected with A2A-expressing lentivirus (custom packaged by Biosettia), puromycin selected", "conditions": "293A cells stably expressing A2A receptor; 0.1% BSA; 1 uM CGS21680 stimulation; replicate values separated by /; read-out: cAMP (nM) 0.1% BSA, 1 uM CGS", "values": [
      {"smiles": "Cc1cc(-c2c(OCc3nc(NCC(=O)O)cc4ccccc34)nc(N)nc2-c2ccc(F)cc2)cc(C(F)F)n1", "note": "[Example 406, (1-(((2-amino-5-(2-(difluoromethyl)-6-methylpyridin-4-yl)-6-(4-fluorophenyl)pyrimidin-4-yl)oxy)methyl)isoquinolin-3-yl)glycine]", "IC50": "719 nM"},
      {"smiles": "Cc1cc(-c2c(OCc3ccc(=O)n(C(C)(C)C(=O)O)n3)nc(N)nc2-c2ccc(F)cc2)cc(C(F)F)n1", "note": "[Example 428, 2-(3-(((2-amino-5-(2-(difluoromethyl)-6-methylpyridin-4-yl)-6-(4-fluorophenyl)pyrimidin-4-yl)oxy)methyl)-6-oxopyridazin-1(6H)-yl)-2-methylpropanoic acid]", "IC50": "> 30000 nM"},
      {"smiles": "Cc1cc(-c2c(OCc3nccc4c3nnn4C)nc(N)nc2-c2ccc(F)cc2)cc(C(F)F)n1", "note": "[Example 416, 5-(2-(difluoromethyl)-6-methylpyridin-4-yl)-4-(4-fluorophenyl)-6-((1-methyl-1H-[1,2,3]triazolo[4,5-c]pyridin-4-yl)methoxy)pyrimidin-2-amine]", "IC50": "498 nM and 615 nM"}
    ]},
    {"molecular_target": "Adenosine A2A receptor (Homo sapiens, UniProt P29274)", "assay": "cAMP assay in 293A cells stably expressing the adenosine A2A receptor (CGS21680 stimulation, HTRF)", "type": "cell-based", "set-up": "expressed in transfected cells; host or cells: 293A cells (Invitrogen, Cat# R705-07) infected with A2A-expressing lentivirus (custom packaged by Biosettia), puromycin selected", "conditions": "293A-A2AR cells, 0.1% BSA, 1 uM CGS; read-out: cAMP (nM) 0.1% BSA, 1 uM CGS", "values": [
      {"smiles": "Cc1cc(-c2c(OCc3nnn(CC(C)(C)O)n3)nc(N)nc2-c2ccc(F)cc2)cc(C(F)F)n1", "note": "[Example 291, 1-(5-(((2-amino-5-(2-(difluoromethyl)-6-methylpyridin-4-yl)-6-(4-fluorophenyl)pyrimidin-4-yl)oxy)methyl)-2H-tetrazol-2-yl)-2-methylpropan-2-ol]", "IC50": "5490 nM"},
      {"smiles": "CCC(C#N)(CC)c1cccc(COc2nc(N)nc(-c3ccc(F)cc3)c2-c2cc(C)nc(C(F)F)c2)n1", "note": "[Example 390, 2-(6-(((2-amino-5-(2-(difluoromethyl)-6-methylpyridin-4-yl)-6-(4-fluorophenyl)pyrimidin-4-yl)oxy)methyl)pyridin-2-yl)-2-ethylbutanenitrile]", "IC50": "85 nM and 98 nM and 51 nM"},
      {"smiles": "Cc1cc(-c2c(OCCN(C)c3cccc(OCC(=O)O)n3)nc(N)nc2-c2ccc(F)cc2)cc(C(F)F)n1", "note": "[Example 248, 2-((6-((2-((2-amino-5-(2-(difluoromethyl)-6-methylpyridin-4-yl)-6-(4-fluorophenyl)pyrimidin-4-yl)oxy)ethyl)(methyl)amino)pyridin-2-yl)oxy)acetic acid]", "IC50": "552 nM and 742 nM and 1100 nM"},
      {"smiles": "Cc1cc(-c2c(OCc3cccc(N4CC(C(=O)O)C4)n3)nc(N)nc2-c2ccc(F)cc2)cc(C(F)F)n1", "note": "[Example 293, 1-(6-(((2-amino-5-(2-(difluoromethyl)-6-methylpyridin-4-yl)-6-(4-fluorophenyl)pyrimidin-4-yl)oxy)methyl)pyridin-2-yl)azetidine-3-carboxylic acid]", "IC50": "4350 nM"},
      {"smiles": "COCC(O)c1cccc(COc2nc(N)nc(-c3ccc(F)cc3)c2-c2cc(C)nc(C(F)F)c2)n1", "note": "(stereo not drawn) [Example 281, 1-(6-(((2-amino-5-(2-(difluoromethyl)-6-methylpyridin-4-yl)-6-(4-fluorophenyl)pyrimidin-4-yl)oxy)methyl)pyridin-2-yl)-2-methoxyethan-1-ol]", "IC50": "609 nM"},
      {"smiles": "Cc1cc(-c2c(OCc3cccc(C(C)(C)OCC(=O)O)n3)nc(N)nc2-c2ccc(F)cc2)cc(C(F)F)n1", "note": "[Example 296, 2-((2-(6-(((2-amino-5-(2-(difluoromethyl)-6-methylpyridin-4-yl)-6-(4-fluorophenyl)pyrimidin-4-yl)oxy)methyl)pyridin-2-yl)propan-2-yl)oxy)acetic acid]", "IC50": "3630 nM"},
      {"smiles": "CCc1nn(CC(C)(C)C(=O)O)nc1COc1nc(N)nc(-c2ccc(F)cc2)c1-c1cc(C)nc(C(F)F)c1", "note": "[Example 300, 3-(4-(((2-amino-5-(2-(difluoromethyl)-6-methylpyridin-4-yl)-6-(4-fluorophenyl)pyrimidin-4-yl)oxy)methyl)-5-ethyl-2H-1,2,3-triazol-2-yl)-2,2-dimethylpropanoic acid]", "IC50": "> 10000 nM"},
      {"smiles": "Cc1cc(-c2c(OCc3cccc(C(C)O)n3)nc(N)nc2-c2ccc(F)cc2)cc(C(F)F)n1", "note": "(stereo not drawn) [Example 272, 1-(6-(((2-amino-5-(2-(difluoromethyl)-6-methylpyridin-4-yl)-6-(4-fluorophenyl)pyrimidin-4-yl)oxy)methyl)pyridin-2-yl)ethan-1-ol]", "IC50": "88 nM and 161 nM"},
      {"smiles": "CCn1nnc(COc2nc(N)nc(-c3cccc(C#N)c3C)c2-c2cc(C)nc(C(F)F)c2)n1", "note": "[Example 237, 3-(2-amino-5-(2-(difluoromethyl)-6-methylpyridin-4-yl)-6-((2-ethyl-2H-tetrazol-5-yl)methoxy)pyrimidin-4-yl)-2-methylbenzonitrile]", "IC50": "2120 nM"},
      {"smiles": "CCn1[nH]c(=O)cc1COc1nc(N)nc(-c2ccc(F)cc2)c1-c1cc(C)nc(C(F)F)c1", "note": "[Example 330, 5-(((2-amino-5-(2-(difluoromethyl)-6-methylpyridin-4-yl)-6-(4-fluorophenyl)pyrimidin-4-yl)oxy)methyl)-1-ethyl-1,2-dihydro-3H-pyrazol-3-one]", "IC50": "2550 nM"},
      {"smiles": "CCc1c(COc2nc(N)nc(-c3ccc(F)cc3)c2-c2cc(C)nc(C(F)F)c2)nnn1CC(C)(C)O", "note": "[Example 252, 1-(4-(((2-ainino-5-(2-(difluoromethyl)-6-methylpyridin-4-yl)-6-(4-fluorophenyl)pyrimidin-4-yl)oxy)methyl)-5-ethyl-1H-1,2,3-triazol-1-yl)-2-methylpropan-2-ol]", "IC50": "1260 nM"},
      {"smiles": "Cc1cc(-c2c(OCCOc3ncccc3C(=O)O)nc(N)nc2-c2ccc(F)cc2)cc(C(F)F)n1", "note": "[Example 337, 2-(2-((2-amino-5-(2-(difluoromethyl)-6-methylpyridin-4-yl)-6-(4-fluorophenyl)pyrimidin-4-yl)oxy)ethoxy)nicotinic acid]", "IC50": "> 25000 nM"},
      {"smiles": "Cc1cc(-c2c(OCCc3ccncc3)nc(N)nc2-c2ccc(F)cc2)cc(C(F)F)n1", "note": "[Example 348, 5-(2-(difluoromethyl)-6-methylpyridin-4-yl)-4-(4-fluorophenyl)-6-(2-(pyridin-4-yl)ethoxy)pyrimidin-2-amine]", "IC50": "2620 nM"},
      {"smiles": "Cc1cc(-c2c(OCc3cccc(N4CC(C)(O)C4)n3)nc(N)nc2-c2ccc(F)cc2)cc(C(F)F)n1", "note": "[Example 260, 1-(6-(((2-amino-5-(2-(difluoromethyl)-6-methylpyridin-4-yl)-6-(4-fluorophenyl)pyrimidin-4-yl)oxy)methyl)pyridin-2-yl)-3-methylazetidin-3-ol]", "IC50": "1360 nM"},
      {"smiles": "Cc1cc(-c2c(OCCn3ccc(C(=O)O)cc3=O)nc(N)nc2-c2ccc(F)cc2)cc(C(F)F)n1", "note": "[Example 334, 1-(2-((2-amino-5-(2-(difluoromethyl)-6-methylpyridin-4-yl)-6-(4-fluorophenyl)pyrimidin-4-yl)oxy)ethyl)-2-oxo-1,2-dihydropyridine-4-carboxylic acid]", "IC50": "3170 nM"},
      {"smiles": "Cc1cc(-c2c(OCc3nnnn3CC(C)(C)O)nc(N)nc2-c2ccc(F)cc2)cc(C(F)F)n1", "note": "[Example 292, 1-(5-(((2-amino-5-(2-(difluoromethyl)-6-methylpyridin-4-yl)-6-(4-fluorophenyl)pyrimidin-4-yl)oxy)methyl)-1H-tetrazol-1-yl)-2-methylpropan-2-ol]", "IC50": "708 nM"},
      {"smiles": "Cc1cc(-c2c(OCc3cccc(C(C)(O)C(=O)O)n3)nc(N)nc2-c2ccc(F)cc2)cc(C(F)F)n1", "note": "(stereo not drawn) [Example 394, 2-(6-(((2-amino-5-(2-(difluoromethyl)-6-methylpyridin-4-yl)-6-(4-fluorophenyl)pyrimidin-4-yl)oxy)methyl)pyridin-2-yl)-2-hydroxypropanoic acid]", "IC50": "865 nM and 496 nM"},
      {"smiles": "CCc1nn(CC(O)COC)nc1COc1nc(N)nc(-c2ccc(F)cc2)c1-c1cc(C)nc(C(F)F)c1", "note": "(stereo not drawn) [Example 321, 1-(4-(((2-amino-5-(2-(difluoromethyl)-6-methylpyridin-4-yl)-6-(4-fluorophenyl)pyrimidin-4-yl)oxy)methyl)-5-ethyl-2H-1,2,3-triazol-2-yl)-3-methoxypropan-2-ol]", "IC50": "2290 nM"},
      {"smiles": "Cc1cc(-c2c(OCc3nc4nc(C(C)(C)C(=O)O)ccc4n3C)nc(N)nc2-c2ccc(F)cc2)cc(C(F)F)n1", "note": "[Example 374, 2-(2-(((2-amino-5-(2-(difluoromethyl)-6-methylpyridin-4-yl)-6-(4-fluorophenyl)pyrimidin-4-yl)oxy)methyl)-1-methyl-1H-imidazo[4,5-b]pyridin-5-yl)-2-methylpropanoic acid]", "IC50": "> 25000 nM"},
      {"smiles": "Cc1cc(-c2c(OCc3ccncc3)nc(N)nc2-c2ccc(F)cc2)cc(C(F)F)n1", "note": "[Example 286, 5-(2-(difluoromethyl)-6-methylpyridin-4-yl)-4-(4-fluorophenyl)-6-(pyridin-4-ylmethoxy)pyrimidin-2-amine]", "IC50": "1800 nM"},
      {"smiles": "Cc1cc(-c2c(OCc3ccnc(C(C)(C)C#N)c3)nc(N)nc2-c2ccc(F)cc2)cc(C(F)F)n1", "note": "[Example 277, 2-(4-(((2-amino-5-(2-(difluoromethyl)-6-methylpyridin-4-yl)-6-(4-fluorophenyl)pyrimidin-4-yl)oxy)methyl)pyridin-2-yl)-2-methylpropanenitrile]", "IC50": "455 nM"},
      {"smiles": "CCN1C(=O)OCC1COc1nc(N)nc(-c2ccc(F)cc2)c1-c1cc(C)nc(C(F)F)c1", "note": "(stereo not drawn) [Example 235, 4-(((2-amino-5-(2-(difluoromethyl)-6-methylpyridin-4-yl)-6-(4-fluorophenyl)pyrimidin-4-yl)oxy)methyl)-3-ethyloxazolidin-2-one]", "IC50": "3710 nM"},
      {"smiles": "Cc1cc(-c2c(OCc3ccc(C)c(C(C)(C)C(=O)O)n3)nc(N)nc2-c2ccc(F)cc2)cc(C(F)F)n1", "note": "[Example 377, 2-(6-(((2-amino-5-(2-(difluoromethyl)-6-methylpyridin-4-yl)-6-(4-fluorophenyl)pyrimidin-4-yl)oxy)methyl)-3-methylpyridin-2-yl)-2-methylpropanoic acid]", "IC50": "21100 nM"},
      {"smiles": "Cc1cc(-c2c(OCc3ncc(C(C)(C)O)s3)nc(N)nc2-c2ccc(F)cc2)cc(C(F)F)n1", "note": "[Example 371, 2-(2-(((2-amino-5-(2-(difluoromethyl)-6-methylpyridin-4-yl)-6-(4-fluorophenyl)pyrimidin-4-yl)oxy)methyl)thiazol-5-yl)propan-2-ol]", "IC50": "2360 nM"}
    ]}
  ]
}
